Assay results reported in patent US20150374649A1, “Treatment of Severe Hypertriglyceridemia” (CymaBay Therapeutics, Inc, priority 2014, published 2015).

Tests used:
[1] = target: T1, PPARα (Homo sapiens, UniProt Q07869); assay: Specificity for PPARδ compared with PPARα; type: biochemical; details: PPARδ versus PPARα
T1 sequence (Q07869 1-468): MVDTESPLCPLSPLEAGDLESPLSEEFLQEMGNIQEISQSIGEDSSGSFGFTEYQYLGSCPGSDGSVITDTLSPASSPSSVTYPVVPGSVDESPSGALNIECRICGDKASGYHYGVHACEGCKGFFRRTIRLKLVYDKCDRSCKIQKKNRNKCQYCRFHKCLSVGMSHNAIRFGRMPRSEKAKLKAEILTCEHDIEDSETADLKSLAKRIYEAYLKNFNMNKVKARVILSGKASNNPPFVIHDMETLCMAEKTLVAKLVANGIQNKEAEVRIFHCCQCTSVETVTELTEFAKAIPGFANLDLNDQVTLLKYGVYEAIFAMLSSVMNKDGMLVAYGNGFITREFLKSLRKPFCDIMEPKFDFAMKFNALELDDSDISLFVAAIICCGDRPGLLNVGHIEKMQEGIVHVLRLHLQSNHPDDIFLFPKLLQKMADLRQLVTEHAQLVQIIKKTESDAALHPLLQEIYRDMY

[2] = test system: dyslipidemic overweight patients (mixed dyslipidemia); details: cited from earlier work
[3] = test system: adult subjects with severe hypertriglyceridemia; assay: 12-week open label dose-escalation study in severe hypertriglyceridemia; type: in vivo, human
Description: The study is a 12-week interventional, open label (single blind), dose-escalation study using adult subjects (for example 30, preferably with at least one-fourth the number having Type I hyperlipoproteinemia and at least one-fourth the number having Type V hyperlipoproteinemia) with severe hypertriglyceridemia (fasting TG levels of at least 1000 mg/dL), on stable therapy (fibrates, niacin, O3FA) or refractory to such therapy. Exclusion criteria include stage 3 or 4 heart failure, uncontrolled diabetes mellitus in the month before screening, use of corticosteroids in the month before screening, estrogen treatments (contraceptive or hormone replacement) unless on a stable dose in the two months before screening, a history of pancreatic disease during the six months before screening, and current apheresis treatments. Subjects are assessed for fasting TGs and other lipids at baseline.

[4] = test system: hypertriglyceridemia patients; details: cited from earlier work

Row | SMILES | specificity compared with PPARα [1] | reduction of TGs over the total population treated ([2]; 50 mg/day and 100 mg/day) | reduction of TGs ([2]; compared to placebo, 50 or 100 mg once daily alone and in combination with ATV 20 mg, 8 weeks, P<0.05) | insulin sensitivity ([2]; homeostatic model assessment-insulin resistance, fasting plasma glucose, insulin lowered) | GGT and ALP ([2]; in vivo) | effect on small dense LDL particles ([2]; in vivo) | liver enzyme levels ([2]; in vivo) | percentage reduction in TGs, tertile with lowest starting TG levels ([2]; starting TG 125-155 mg/dL) | percentage reduction in TGs, tertile with highest starting TG levels ([2]; starting TG 279-324 mg/dL) | fasting TGs versus baseline ([3]; 50, 100, 200 mg/day orally, four weeks each, reduction increasing with dose) | percentage of subjects at risk of acute pancreatitis and associated adverse events ([3]; subjects with SHTG) | decrease of TG levels ([4]; high-dose niacin (at least 1500 mg/day)) | raise of HDL-C levels ([4]; human, in vivo)
1 | CCO[C@H](COc1ccc(C(F)(F)F)cc1)CSc1ccc(OCC(=O)O)c(C)c1 [MBX-8025, (R)-2-(4-((2-ethoxy-3-(4-(trifluoromethyl)phenoxy)propyl)thio)-2-methylphenoxy)acetic acid] | > 600 fold | 32% | 26-30% | increases insulin sensitivity | lowers GGT and ALP | selectively depletes small dense LDL particles | reduced liver enzyme levels | near zero | over 40% | reduction in fasting TGs from baseline | significantly reduce | – | –
2 | O=C(O)c1cccnc1 [niacin, pyridine-3-carboxylic acid] | – | – | – | – | – | – | – | – | – | – | – | at least 40% | at least 40%
